Measured values from patent US6825236B2, “Colchicine derivatives” (California Pacific Medical Center, priority 2003, dated 2004).

Legend:
C3H/HeJ mice = experiment: In vivo toxicity (MTD / nontoxicity dose), intraperitoneal injection; conditions: highest dose causing no severe irreversible toxicity
Procedure: This example provides directions for performing in vivo toxicity tests of the compounds of the invention on C3H/HeJ mice.
Acute toxicities of the compounds of this invention are evaluated on C3H/HeJ mice (body weight 18-22 g). The MTD40 (maximum tolerated dose at day 40) values are determined by the standard procedure described by Gad and Chengelis (see, for example, “Acute Toxicology Testing,” 2nd Ed., Shayne O. Gad and Christopher P. Chengelis, pp. 186-195 (Academic Press).) In the consecutive type studies, 2 mice are dosed at low and moderate doses of 40 and 100 mg/kg. If no severe and irreversible toxicity (euthanasia is required) occurs at these doses, a new pair of animals is initiated at 180 mg/kg, which is 1.8 times higher than 100 mg/kg. Sequential dosages (about 3 doses on 3 pairs of animals, i.e. 2 mice for each drug dose) are increased by a factor of 1.8 until severe and irreversible toxicity (euthanasia is required) occurred. Then another pair of animals is initiated at the highest nonlethal dosage, and successive dosages were increased by a factor of 1.15. The result of this exercise is two dosages, one apparently nonlethal and the other lethal if severe and irreversible toxicity occurs and euthanasia is required, separated by a factor of 1.15. Six mice are dosed at each dosage. If no severe and irreversible toxicity occurs at the lower dosage and at least one with severe and irreversible toxicity occurs at the higher dose, then the lower dose is considered to be the MTD. The compounds of this invention are administered to C3H/HeJ mice by intraperitoneal injection (IP). Drug toxicity is evaluated on mice checked daily for 45 days. The toxicity parameters reported will be the MTD40.

HCT116 = experiment: Cell colony formation assay; assay type: cell-based; conditions: 72 hours with drug, colonies counted after 7 days
Procedure: This example provides directions for growing cells and testing compounds of the invention for their effect on the growth of the cells. All cells were purchased from DCTDC Tumor Repository, NCI, NIH.
Cell Colony Formation Assay
Four hundred cells (HCT 116, PC-3) or five hundred cells (VM46) were plated in 60 mm Petri dishes containing 2.7 ml of medium (modified McCoy's 5a medium) containing 10% fetal bovine serum and 100 units/ml penicillin and […] streptomycin. The cells were incubated in a CO2 incubator at 37° C. for 5 hours for attachment to the bottom of Petri dishes. Drugs were made fresh in medium at ten times the final concentration, and then 0.3 ml of this stock solution was added to the 2.7 ml of medium in the dish. The cells were then incubated with drugs for 72 hours at 37° C. At the end of the incubation the drug-containing media were decanted, the dishes were rinsed with 4 ml of Hank's Balance Salt Solution (HBSS), 5 ml of fresh medium was added, and the dishes were returned to the incubator for colony formation. The cell colonies were counted using colony counter after incubation for 7 days for HCT116 cells and PC-3 cells and 8 days for VM46 cells, respectively.
Values of ID50 (the drug concentration producing 50% inhibition of colony formation) may be determined for each tested compound. The directions described in this example may be used in other cells, such as DU-145.

[1] = system: MTG-B mouse mammary adenocarcinoma; experiment: In vivo efficacy in mice bearing MTG-B tumors; design: species or system C3H/HeJ mice; conditions: for Surviving days after treatment of MTG-B mouse mammary adenocarcinoma in C3H/Hcj mice: i.p., days from day 0, survival time of control mice generally 6 days; for T/C %: surviving days of treated mice / surviving days of control mice x 100%
Procedure: This example provides directions for performing in vivo efficacy tests of the compounds of the invention on C3H/HeJ mice bearing MTG-B tumors.
Studies on the compounds of this invention are performed on C3H/HeJ mice bearing MTG-B tumors. The tumors grow exponentially following implantation into the flanks of the mice and reached a diameter of 8 mm (268.08 mm^3) by day 7 to 10. Treatment is initiated at that time, with the first day of treatment designated as day 0 for calculation and plots. The mice are injected i.p. with three drug dose levels (⅓, ½, 1 5 MTD) using both a single injection and the schedule of Q2D 5 3 (every 2 days for a total of 3 treatments at ⅓ MTD). Control groups of mice bearing 8 mm diameter tumors are treated with vehicle alone. After drug treatment, the mice are observed twice a day. When a tumor reaches 1.5 g, the mouse bearing the tumor wis euthanized. Surviving days measured from day 0 for mice treated with anticancer drugs (T) and surviving days measured from day 0 for control mice (C) are recorded. Tumor growth inhibition values (T/C %) are calculated using the formula T/C %=(surviving days of mice treated with an anticancer drug T/surviving days of control mice C) 5 100%.
Tumor sizes may be measured by caliper every day. Daily measurement (mm) of solid tumor (length L and width W) in two dimensions is used to calculate the tumor weight [tumor weight=(length 5 width^2)/2] based on the interchangeable value of 1 mm^3=1 mg. Tumor growth delay (T−C value) is determined by calculation of the median time (in days) required for the treatment group and control group tumors to reach 1,000 mg. Tumor doubling time (Td) is measured, and tumor cell kill is calculated by the formula of log cell kill=(T−C value)/(3.32 5 Td). Regression effects after treatment may be observed and recorded (a complete regression: a regression below limit of palpation; a partial regression: a regression of more than 50% reduction in tumor mass).
Generally, the survival time of the control mice is six (6) days. A ratio of the extra days of survival of mice treated with the compounds of the invention (compared to control) to the extra days of survival of mice treated with taxol (compared to control), can be calculated. For example, if the mice survived 18 days as compared to 9 days for taxol-treated mice, the CD/Taxol ratio would be 18−6/9−6=12/3=4 or 400%.
The following Table II provides a summary of the in vivo toxicity and iv vivo efficacy tests described in Examples 41 and 42 for the compounds tested.

Row | Molecule | In Vivo Toxicity Nontoxicity Dose (ip. mg/kg) in C3H/Hej mice (C3H/HeJ mice) | Survival (%) of HCT116 (HCT116; 10 nM) | Survival (%) of HCT116 (HCT116; 100 nM) | Surviving days after treatment of MTG-B mouse mammary adenocarcinoma in C3H/Hcj mice [1] | T/C % [1] | Survival (%) of HCT116 (HCT116; 1 nM)
1 | COc1cc2c(c(OC)c1OC)-c1ccc(SC)c(=O)cc1C(NC(=O)COc1ccccc1[N+](=O)[O-])CC2 (stereo not shown) [Compound 000830, N-Deacetyl-N-(2-nitrophenoxyacetyl)thiocolchicine] | 150 (120) mg/kg | 9.01% | 0% | 8 days | 133% | 
2 | COc1cc2c(c(OC)c1OC)-c1ccc(SC)c(=O)cc1C(NC(=O)c1cccc(NC(=O)CCl)c1)CC2 (stereo not shown) [Compound 000911, N-Deacetyl-N-(3-chloroacetaminobenzoyl)thiocolchicine] | 30 (30) mg/kg | 0% | 0% | 11 days | 183% | 100%
3 | COc1cc2c(c(OC)c1OC)-c1ccc(SC)c(=O)cc1C(NC(=O)c1ccc([N+](=O)[O-])o1)CC2 (stereo not shown) [Compound 000906, N-Deacetyl-N-(5-nitro-2-furnancarbonyl)thiocolchicine] | 50 mg/kg | 0% | 0% |  |  | 98.67%
4 | COc1ccc(OCC(=O)N[C@H]2CCc3cc(OC)c(OC)c(OC)c3-c3ccc(SC)c(=O)cc32)cc1 [Compound 000825, N-Deacetyl-N-(4-methoxyphenoxyacetyl)thiocolchicine] | 50 (30) mg/kg | 0% | 0% | 18 days |  | 90.25%
5 | COc1cc2c(c(OC)c1OC)-c1ccc(SC)c(=O)cc1C(NC(=O)COc1ccc(Br)cc1)CC2 (stereo not shown) [Compound 000815, N-Deacetyl-N-(4-bromophenoxyacetyl)thiocoichicine] | 100 (100) mg/kg | 93.8% | 0% | 9 days | 150% | 
6 | COc1cc2c(c(OC)c1OC)-c1ccc(SC)c(=O)cc1C(NC(=O)COc1cc(C)ccc1C)CC2 (stereo not shown) [Compound 000817, N-Deacetyl-N-(2,5-dimethylphenoxyacetyl)thiocolchicine] | 100 mg/kg | 99.8% | 0% |  |  | 
7 | COc1cc2c(c(OC)c1OC)-c1ccc(SC)c(=O)cc1C(NC(=O)COc1ccc(Cl)cc1)CC2 (stereo not shown) [Compound 000814, N-Deacetyl-N-(4-chlorophenoxyacetyl)thiocolchicine] | 100 mg/kg | 87.7% | 0% |  |  | 
8 | COc1cc2c(c(OC)c1OC)-c1ccc(OC)c(=O)cc1C(NC(C)=O)CC2 (stereo not shown) [Colchicine] | 1.6 (0.5) mg/kg | 76.1% | 0% | 9 days | 150% | 100%
9 | COc1cc2c(c(OC)c1OC)-c1ccc(SC)c(=O)cc1C(NC(=O)c1cc(=O)c3ccccc3o1)CC2 (stereo not shown) [Compound 000914, N-Deacetyl-N-(chromone-2-carbonyl)thiocolchicine] | 150 (120) mg/kg | 3.54% | 0% |  |  | 
10 | COc1cc2c(c(OC)c1OC)-c1ccc(SC)c(=O)cc1C(NC(=O)COc1ccc(F)cc1)CC2 (stereo not shown) [Compound 000811, N-Deacetyl-N-(4-fluorophenoxyacetyl)thiocolchicine] | 150 mg/kg | 50.4% | 0% |  |  | 
11 | COc1cc2c(c(OC)c1OC)-c1ccc(SC)c(=O)cc1C(NC(=O)COc1ccc(I)cc1)CC2 (stereo not shown) [Compound 000816, N-Deacetyl-N-(4-iodophenoxyacetyl)thiocolchicine] | 100 mg/kg | 100% | 0% |  |  | 
12 | N-Deacetyl-N-(4-methoxyphenoxyacetyl)thiocolchicine [Compound 000818] |  | 98.8% | 0% | 8 days |  | 
13 | COc1cc2c(c(OC)c1OC)-c1ccc(SC)c(=O)cc1C(NC(=O)COc1ccc(C=O)cc1)CC2 (stereo not shown) [Compound 000829, N-Deacetyl-N-(4-formylphenoxyacetyl)thiocolchicine] | 150 (120) mg/kg | 0% | 0% | 13 days | 217% | 100%
